The source made the active and inactive calls. No cut-off for these calls is given here.
The compounds below were run on Pseudomonas aeruginosa (assay: Antibacterial activity against Pseudomonas aeruginosa PAO1 by standard optical density assay).
Type: functional, organism-based

MIC [µM]	Compound
> 256	CCCC(=O)Oc1cccc2ccc(-c3ccc(C(F)(F)F)cc3)nc12
> 256	CCCCCCC(=O)Oc1cccc2ccc(-c3cccc(C(F)(F)F)c3)nc12
> 256	CCCCC(=O)Oc1cccc2ccc(-c3ccc(C(F)(F)F)cc3)nc12
> 256	CCCCCC(=O)Oc1cccc2ccc(-c3cccc(C(F)(F)F)c3)nc12
> 256	CCCCCC(=O)Oc1cccc2ccc(-c3ccc(C(F)(F)F)cc3)nc12
> 256	CCCCCCC(=O)Oc1cccc2ccc(-c3cc(C(F)(F)F)cc(C(F)(F)F)c3)nc12
> 256	CCCCCCC(=O)Oc1cccc2ccc(-c3ccc(C(F)(F)F)cc3)nc12

Further lines, the compound ahead of its results:

Compound	MIC [µM]
Oc1cccc2ccc(-c3ccc(C(F)(F)F)cc3)nc12	> 256
CCC(=O)Oc1cccc2ccc(-c3ccc(C(F)(F)F)cc3)nc12	> 256
O=C(Oc1cccc2ccc(-c3cccc(C(F)(F)F)c3)nc12)c1ccco1	> 256
O=C(Oc1cccc2ccc(-c3cccc(C(F)(F)F)c3)nc12)c1ccc(Cl)cc1	> 256
COc1ccc(C(=O)Oc2cccc3ccc(-c4cccc(C(F)(F)F)c4)nc23)cc1	> 256
Cc1ccc(C(=O)Oc2cccc3ccc(-c4cccc(C(F)(F)F)c4)nc23)cc1	> 256
CCCCCCC(=O)Oc1cccc2ccc(-c3ccc(F)cc3)nc12	> 256
Cc1ccc(C(=O)Oc2cccc3ccc(-c4ccc(C(F)(F)F)cc4)nc23)cc1	> 256
O=C(Oc1cccc2ccc(-c3cccc(C(F)(F)F)c3)nc12)c1ccccc1	> 256
COc1ccc(C(=O)Oc2cccc3ccc(-c4ccc(C(F)(F)F)cc4)nc23)cc1	> 256
O=C(Oc1cccc2ccc(-c3ccc(C(F)(F)F)cc3)nc12)c1ccccc1	> 256
O=C(Oc1cccc2ccc(-c3ccc(C(F)(F)F)cc3)nc12)c1ccco1	> 256
CC(=O)Oc1cccc2ccc(-c3ccc(C(F)(F)F)cc3)nc12	> 256
O=C(Oc1cccc2ccc(-c3ccc(C(F)(F)F)cc3)nc12)c1ccc(Cl)cc1	> 256

The compounds below were run on Pseudomonas aeruginosa PAO1 (assay: Inhibition of quorum sensing protein iqs in Pseudomonas aeruginosa PAO1 in phosphate limited medium assessed as reduction in biofilm formation at 10 uM after 18 hrs by crystal violet staining-based assay).

Compound	inhibition
COc1ccc(C(=O)Oc2cccc3ccc(-c4cccc(C(F)(F)F)c4)nc23)cc1	inactive
CCCCCCC(=O)Oc1cccc2ccc(-c3ccc(C(F)(F)F)cc3)nc12	inactive

These compounds were tested on Pseudomonas aeruginosa PAO1 (assay: Inhibition of PQS in Pseudomonas aeruginosa PAO1 assessed as decrease in pyocyanin production at 10 uM after 16 hrs by standard optical density assay).

Compound	inhibition
COc1ccc(C(=O)Oc2cccc3ccc(-c4cccc(C(F)(F)F)c4)nc23)cc1	inactive
CCCCCCC(=O)Oc1cccc2ccc(-c3ccc(C(F)(F)F)cc3)nc12	inactive

The compounds below were run against Elastase (Pseudomonas aeruginosa (strain ATCC 15692 / PAO1 / 1C / PRS 101 / LMG12228)) (UniProt P14756) (assay: Inhibition of lasB in Pseudomonas aeruginosa PAO1 containing lasB-lacZ translational reporter fusion at 20 uM after 16 hrs by LacZ reporter gene assay).
Chain of Elastase (Pseudomonas aeruginosa (strain ATCC 15692 / PAO1 / 1C / PRS 101 / LMG12228)) (P14756 198-498 limits assumed): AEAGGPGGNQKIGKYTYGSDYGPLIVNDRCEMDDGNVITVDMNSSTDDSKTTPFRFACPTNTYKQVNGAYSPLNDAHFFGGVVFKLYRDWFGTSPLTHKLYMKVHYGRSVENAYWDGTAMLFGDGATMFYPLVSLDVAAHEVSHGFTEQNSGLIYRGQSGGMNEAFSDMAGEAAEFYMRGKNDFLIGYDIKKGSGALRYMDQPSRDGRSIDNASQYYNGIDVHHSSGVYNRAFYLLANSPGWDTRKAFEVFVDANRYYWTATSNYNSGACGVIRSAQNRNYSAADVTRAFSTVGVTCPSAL

Compound	inhibition
COc1ccc(C(=O)Oc2cccc3ccc(-c4cccc(C(F)(F)F)c4)nc23)cc1	inactive
CCCCCCC(=O)Oc1cccc2ccc(-c3ccc(C(F)(F)F)cc3)nc12	inactive

These compounds were tested against 3-(3-hydroxydecanoyloxy)decanoate synthase (Pseudomonas aeruginosa (strain ATCC 15692 / PAO1 / 1C / PRS 101 / LMG12228)) (UniProt Q51559) (assay: Inhibition of rhlA in Pseudomonas aeruginosa PAO1 assessed as decrease in rhamnolipid production at 10 uM after 16 hrs by standard optical density assay).

Compound	inhibition
COc1ccc(C(=O)Oc2cccc3ccc(-c4cccc(C(F)(F)F)c4)nc23)cc1	Active
CCCCCCC(=O)Oc1cccc2ccc(-c3ccc(C(F)(F)F)cc3)nc12	Active

Each compound was assayed on Pseudomonas aeruginosa (assay: Antibiofilm activity against Pseudomonas aeruginosa PAO1 at 10 uM after 18 hrs by crystal violet staining-based assay).
Type: functional, organism-based

Compound	Activity
Oc1cccc2ccc(-c3ccc(C(F)(F)F)cc3)nc12	Active
CCC(=O)Oc1cccc2ccc(-c3ccc(C(F)(F)F)cc3)nc12	Active
CCCC(=O)Oc1cccc2ccc(-c3ccc(C(F)(F)F)cc3)nc12	Active
O=C(Oc1cccc2ccc(-c3cccc(C(F)(F)F)c3)nc12)c1ccco1	Active
O=C(Oc1cccc2ccc(-c3cccc(C(F)(F)F)c3)nc12)c1ccc(Cl)cc1	Active
COc1ccc(C(=O)Oc2cccc3ccc(-c4cccc(C(F)(F)F)c4)nc23)cc1	Active
Cc1ccc(C(=O)Oc2cccc3ccc(-c4cccc(C(F)(F)F)c4)nc23)cc1	Active
Cc1ccc(C(=O)Oc2cccc3ccc(-c4ccc(C(F)(F)F)cc4)nc23)cc1	Active
CCCCCCC(=O)Oc1cccc2ccc(-c3cccc(C(F)(F)F)c3)nc12	Active
O=C(Oc1cccc2ccc(-c3cccc(C(F)(F)F)c3)nc12)c1ccccc1	Active
COc1ccc(C(=O)Oc2cccc3ccc(-c4ccc(C(F)(F)F)cc4)nc23)cc1	Active
CCCCC(=O)Oc1cccc2ccc(-c3ccc(C(F)(F)F)cc3)nc12	Active
O=C(Oc1cccc2ccc(-c3ccc(C(F)(F)F)cc3)nc12)c1ccccc1	Active
O=C(Oc1cccc2ccc(-c3ccc(C(F)(F)F)cc3)nc12)c1ccco1	Active
CCCCCC(=O)Oc1cccc2ccc(-c3cccc(C(F)(F)F)c3)nc12	Active
CCCCCC(=O)Oc1cccc2ccc(-c3ccc(C(F)(F)F)cc3)nc12	Active
CCCCCCC(=O)Oc1cccc2ccc(-c3ccc(C(F)(F)F)cc3)nc12	Active
CC(=O)Oc1cccc2ccc(-c3ccc(C(F)(F)F)cc3)nc12	Active
O=C(Oc1cccc2ccc(-c3ccc(C(F)(F)F)cc3)nc12)c1ccc(Cl)cc1	Active

Each compound was assayed against 3-(3-hydroxydecanoyloxy)decanoate synthase (Pseudomonas aeruginosa (strain ATCC 15692 / PAO1 / 1C / PRS 101 / LMG12228)) (UniProt Q51559) (assay: Inhibition of rhlA in Pseudomonas aeruginosa PAO1 containing […] translational reporter fusion at 20 uM after 16 hrs by LacZ reporter gene assay).

Compound	inhibition
COc1ccc(C(=O)Oc2cccc3ccc(-c4cccc(C(F)(F)F)c4)nc23)cc1	Active
CCCCCCC(=O)Oc1cccc2ccc(-c3ccc(C(F)(F)F)cc3)nc12	Active

Each compound was assayed against T1, Anthranilate--CoA ligase (Pseudomonas aeruginosa (strain ATCC 15692 / DSM 22644 / CIP 104116 /JCM 14847 / LMG 12228 / 1C / PRS 101 / PAO1)) (UniProt Q9I4X3) (assay: Inhibition of pqsA in Pseudomonas aeruginosa PAO1 containing […] translational reporter fusion at 20 uM after 16 hrs by LacZ reporter gene assay).
T1 sequence (whole entry): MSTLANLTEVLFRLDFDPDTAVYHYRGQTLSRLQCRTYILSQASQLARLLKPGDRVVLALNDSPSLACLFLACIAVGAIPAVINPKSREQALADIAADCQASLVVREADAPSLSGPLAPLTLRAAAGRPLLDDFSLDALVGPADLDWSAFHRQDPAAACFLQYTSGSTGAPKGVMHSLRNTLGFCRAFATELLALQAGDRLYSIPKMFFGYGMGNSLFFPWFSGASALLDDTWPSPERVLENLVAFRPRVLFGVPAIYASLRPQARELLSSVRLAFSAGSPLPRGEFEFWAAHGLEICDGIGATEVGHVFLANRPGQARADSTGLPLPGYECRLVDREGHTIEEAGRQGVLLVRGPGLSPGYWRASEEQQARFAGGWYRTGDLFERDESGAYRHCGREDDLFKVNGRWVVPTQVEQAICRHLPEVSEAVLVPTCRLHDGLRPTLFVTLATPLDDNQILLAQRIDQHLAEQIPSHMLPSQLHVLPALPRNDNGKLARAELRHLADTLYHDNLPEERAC

Compound	inhibition
COc1ccc(C(=O)Oc2cccc3ccc(-c4cccc(C(F)(F)F)c4)nc23)cc1	inactive
CCCCCCC(=O)Oc1cccc2ccc(-c3ccc(C(F)(F)F)cc3)nc12	inactive

Reference: ChEMBL document CHEMBL4422639, “Novel 2, 8-bit derivatives of quinolines attenuate Pseudomonas aeruginosa virulence and biofilm formation” (Bioorg Med Chem Lett, 2019)
